{"source": "patent US20060094765A1", "about": "“Use of a sri and vitamin b6 for the treatment of neurological and mental disorders” (Pantarhei Bioscience B.V., priority 2002, published 2006)", "key": {"[1]": {"assay": "Chronic mild stress (CMS) model of depression, sucrose consumption", "type": "in vivo, Male Wistar rats", "conditions": "unstressed control rats; citalopram 2.5 or 5.0 mg/kg, alone or with pyridoxine 10 mg/kg, i.p. daily, 5 weeks", "text": "(§1) Chronic mild stress (CMS), a well-validated preclinical model of depression (Willner, 1997, Validity, reliability and utility of the chronic mild stress model of depression: a 10-year review and evaluation. Psychopharmacology, 134, 319-329, […] et al., 2002, Preclinical models: status of basic research in depression, Soc. Biol. Psych., 52, 503-528), was used to study the effects of combined therapy of SRI with pyridoxine on responder rate and the time to achieve a full drug response ('onset of action') as compared to treatment with SRI alone. Citalopram, as an example of a SRI, was combined with either pyridoxine or vehicle and administered to chronically, mildly stressed rats during a 5-week treatment schedule. Consumption of sucrose solution after fasting, which a commonly accepted measure of anhedonia, i.e. inability to experience pleasure, was chosen for readout, since this is a core symptom of human depressive disorders. Male Wistar rats were brought into the laboratory two months before the start of the experiment for acclimatization and training (see below). During this period, the animals were singly housed and were maintained on a 12-h light/dark cycle (lights on at 08.00) at a constant temperature of 22±2° C. and humidity (55±5%). Food pellets (containing an optimal level of 1 mg/kg pyridoxine) and water were freely available, with the exception of the deprivation procedure as described below. During a period of 5 weeks, rats were trained to consume a 1% sucrose solution. Training consisted of ten 1-h baseline tests (twice weekly) in which sucrose was presented, in the home cage, following 14 h of food and water deprivation. Sucrose intake was measured by weighing pre-weighed bottles containing the sucrose solution, at the end of the test. Subsequently, sucrose consumption was monitored, under similar conditions, at weekly intervals throughout the whole experiment. […] Mean values in sucrose consumption during stress and subsequently the 5 weeks of vehicle and drug treatment in control and stressed animals were calculated. […]"}, "[2]": {"tested_on": "chronically, mildly stressed rats", "assay": "Chronic mild stress (CMS) model of depression, sucrose consumption", "type": "in vivo, Male Wistar rats", "conditions": "stressed rats, n=8, alone or with pyridoxine 10 mg/kg", "text": "as §1"}}}
{"smiles": "CN(C)CCCC1(c2ccc(F)cc2)OCc2cc(C#N)ccc21", "note": "(stereo not drawn) [citalopram]", "values": [{"measurement": "effect on sucrose intake in control animals", "setting": "[1]", "result": "no significant effect"}, {"measurement": "responder rate (rats exhibiting increased sucrose intake)", "setting": "[2]; citalopram 2.5 mg/kg i.p. daily for 5 weeks", "result": 50, "unit": "%"}, {"measurement": "responder rate (rats exhibiting increased sucrose intake)", "setting": "[2]; citalopram 5.0 mg/kg i.p. daily for 5 weeks", "result": 62.5, "unit": "%"}]}
